This note sets out measurements from US20220324835A1 (Nurix Therapeutics, Inc., priority 2018, published 2022).

What is called IC50 is the concentration that inhibits the measured activity by half. For orientation: Kd means the free concentration of one partner at which half of the binding sites on the other are occupied at equilibrium, for simple one-to-one binding.

For assay [1], the target named is T1, Cbl-b (Homo sapiens, UniProt Q13191). The experiment in a line: Cbl-b activity assay (Cbl-b inhibition assay), TR-FRET of Cbl-b interaction with UbcH5B-Ub. Type of assay: biochemical. To be noted: assay buffer with 100 mM NaCl, 60 nM Src kinase; read-out: Cbl-b activity IC50. An outline of the steps:
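Compound-treated Cbl-b was incubated 1.5 h with Src kinase (60 nM final; 30 nM for asterisked values, which also used 50 mM instead of 100 mM NaCl), 1 mM ATP and 5 mM MgCl2. Binding to fluorescent Ub-loaded UbcH5B (C85K mutant) was then read by TR-FRET after 1 h more.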

In assay [2] the test system is T-cell. The experiment in a line: IL-2 secretion from T-cells stimulated with anti-CD3 antibody alone (Biological Example 2). The assay is classed as cell-based, human. To be noted: T-cell, fold change over baseline, primary human total T-cells, read-out: IL-2 secretion Anti-CD3 stimulation.
Assay [3] deals with T-cell. The experiment in a line: CD25 cell surface staining on T-cells stimulated with anti-CD3 antibody alone (Biological Example 2). Type of assay: cell-based, human. To be noted: T-cell, fold change over baseline, primary human total T-cells, read-out: CD25 staining Anti-CD3 stimulation.
A further assay deals with Cbl-b (residues 36-427) (Homo sapiens, UniProt Q13191). Put plainly: Cbl-b binding assay (SPR, Biacore T200). To be noted: 20° C., 1:1 binding model. The method, boiled down:
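NeutrAvidin capture chip, 20° C; 50 s injections at 50 μl/min, 90-180 s dissociation; 0.3 M NaCl regeneration. Asterisked column: 50 mM NaCl buffer and 30 nM Src kinase in place of 100 mM NaCl and 60 nM Src kinase. 1:1 fit.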

Assay [4] relates to T-cell. The experiment in a line: IL-2 secretion from T-cells co-stimulated with anti-CD3 and anti-CD28 antibody (Biological Example 2). The assay is classed as cell-based, human. To be noted: Homo sapiens, T-cell, fold change over baseline, primary human total T-cells, read-out: IL-2 secretion Anti-CD3/Anti-CD28 stimulation. The method, boiled down: (§1)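 Values are fold-change over baseline: readings (IL-2 release, CD25 staining) from inhibitor-treated T-cells divided against untreated cells […]. No detailed procedure stated.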

Assay [5] concerns T-cell. Put plainly: CD25 cell surface staining on T-cells co-stimulated with anti-CD3 and anti-CD28 antibody (Biological Example 2). Type of assay: cell-based, human. To be noted: Homo sapiens, T-cell, fold change over baseline, primary human total T-cells, read-out: CD25 staining Anti-CD3/Anti-CD28 stimulation. The method, boiled down:
as §1

For assay [6], the target named is T1, Cbl-b. The experiment in a line: Cbl-b inhibition assay (Cbl-b activity assay, FRET, Biological Example 1; 100 mM NaCl, 60 nM Src kinase). Type of assay: biochemical. To be noted: upper bound stated in text lists; read-out: IC50 values in the Cbl-b inhibition assay of Biological Example 1. The method, boiled down: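 FRET read-out: loss of signal marks inhibition. Mix = biotin-Avi-Cbl-b (N-term), Src kinase, UbcH5B-Ub(Bodipy-FL, irreversible conjugate), streptavidin-Tb, assay buffer.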

Sequence of Cbl-b (residues 36-427) (Q13191 36-427): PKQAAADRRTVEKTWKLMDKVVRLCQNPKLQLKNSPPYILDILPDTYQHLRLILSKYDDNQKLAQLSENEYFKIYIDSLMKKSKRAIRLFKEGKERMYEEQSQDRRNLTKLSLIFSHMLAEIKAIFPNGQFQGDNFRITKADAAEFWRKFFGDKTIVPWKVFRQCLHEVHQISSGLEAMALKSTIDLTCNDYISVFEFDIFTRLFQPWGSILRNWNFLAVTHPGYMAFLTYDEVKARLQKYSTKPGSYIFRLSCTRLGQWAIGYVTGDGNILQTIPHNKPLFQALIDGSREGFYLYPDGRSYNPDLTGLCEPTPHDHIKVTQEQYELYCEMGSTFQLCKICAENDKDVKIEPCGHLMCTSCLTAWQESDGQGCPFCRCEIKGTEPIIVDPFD
T1 sequence (Q13191 36-427): as above

Consider `C[C@H](Cc1nncn1C)c1cc(N[C@H]2CCOC2)nc(N2Cc3c(cccc3C(F)(F)F)C2=O)c1` (stereo in doubt) [Compound 361, 2-(4-((R)-1-(4-methyl-4H-1,2,4-triazol-3-yl)propan-2-yl)-6-((R)-THF-3-ylamino)pyridin-2-yl)-4-(trifluoromethyl)isoindolin-1-one], for which the half-inhibitory concentration (IC50) at Cbl-b [1] lay in the range of 0.301 to 1 µM. The fold induction at 1 µM with T-cell [2] (1 μM Cbl-b inhibitor) was in the range of 0.051 to 0.1; in the assay with T-cell [3] (1 μM Cbl-b inhibitor), 0.601 to 0.8; with T-cell [4] (1 μM Cbl-b inhibitor) it was 1.01 to 2.5; in the assay on T-cell [5] (1 μM Cbl-b inhibitor) it was 1.01 to 1.3. Besides, the fold induction at 8 µM with T-cell [2] (8 μM Cbl-b inhibitor) was in the range of 0.151 to 0.2; in the assay on T-cell [3] (8 μM Cbl-b inhibitor), 0.801 to 1. Also, the Kd on Cbl-b (residues 36-427) fell in the range of 0.301 to 1 µM. The fold induction at 0.3 µM in the assay on T-cell [4] (0.3 μM Cbl-b inhibitor) is 1.01 to 2.5; in the assay with T-cell [5] (0.3 μM Cbl-b inhibitor) it was less than 1. The fold induction at 4 µM with T-cell [4] (4 μM Cbl-b inhibitor) is 1.01 to 2.5; in the assay on T-cell [5] (4 μM Cbl-b inhibitor), 1.01 to 1.3.
In the case of `C[C@H](Cc1nncn1C)c1cccc(NC(=O)c2cc(C(=O)N3CC[C@H](O)C3)ccc2F)c1` [Compound 254, 2-fluoro-5-((S)-3-hydroxypyrrolidine-1-carbonyl)-N-(3-((R)-1-(4-methyl-4H-1,2,4-triazol-3-yl)propan-2-yl)phenyl)benzamide], the IC50 is 1 to 3 µM at Cbl-b [1] and no more than 10 µM at Cbl-b [6]. Further, on Cbl-b (residues 36-427), the dissociation constant (Kd) was in the range of 3 to 10 µM.
The like results for `CC(C)c1nccc2c1CN(c1cccc([C@H](C)Cc3nncn3C)c1)C2=O` [Compound 259, (R)-4-isopropyl-2-(3-(1-(4-methyl-4H-1,2,4-triazol-3-yl)propan-2-yl)phenyl)-2,3-dihydro-1H-pyrrolo[3,4-c]pyridin-1-one] were, in that order, 0.301 to 1 µM, no more than 1 µM and 1 to 3 µM.
The like results for `C[C@H](Cc1ncn(C)n1)c1cccc(N2Cc3c(cccc3C(F)(F)F)C2=O)c1` [Compound 263, (R)-2-(3-(1-(1-methyl-1H-1,2,4-triazol-3-yl)propan-2-yl)phenyl)-4-(trifluoromethyl)isoindolin-1-one] were, in that order, 3 to 10 µM, no more than 10 µM and 3 to 10 µM.
Taken in the same sequence, the figures for `C[C@H](Cc1ncnn1C)c1cccc(N2Cc3c(cccc3C(F)(F)F)C2=O)c1` [Compound 264, (R)-2-(3-(1-(2-methyl-2H-1,2,4-triazol-3-yl)propan-2-yl)phenyl)-4-(trifluoromethyl)isoindolin-1-one] were 3 to 10 µM, no more than 10 µM and greater than 10 µM.
Regarding `C[C@H](Cc1nnco1)c1cccc(N2Cc3c(cccc3C(F)(F)F)C2=O)c1` [Compound 266, (R)-2-(3-(1-(1,3,4-oxadiazol-2-yl)propan-2-yl)phenyl)-4-(trifluoromethyl)isoindolin-1-one], the results for the IC50 at Cbl-b [1] and at Cbl-b [6] were 3 to 10 µM and no more than 10 µM, respectively. In addition, the Kd on Cbl-b (residues 36-427) is greater than 10 µM.
The like results for `C[C@H](Cc1nccn1C)c1cccc(N2Cc3c(cccc3C(F)(F)F)C2=O)c1` [Compound 267a, (R)-2-(3-(1-(1-methyl-1H-imidazol-2-yl)propan-2-yl)phenyl)-4-(trifluoromethyl)isoindolin-1-one] were, in that order, 1 to 3 µM, no more than 10 µM and 3 to 10 µM.
The like results for `CC(Cc1n[nH]cc1CO)c1cccc(N2Cc3c(cccc3C(F)(F)F)C2=O)c1` (stereo not drawn) [Compound 271, 2-(3-(1-(4-(hydroxymethyl)-1H-pyrazol-3-yl)propan-2-yl)phenyl)-4-(trifluoromethyl)isoindolin-1-one] were, in that order, 3 to 10 µM, no more than 10 µM and 3 to 10 µM.
Taken in the same sequence, the figures for `C[C@H](Cc1nncn1C)c1cccc(N2Cc3c(cc(C(=O)O)cc3C(F)(F)F)C2=O)c1` [Compound 273, (R)-2-(3-(1-(4-methyl-4H-1,2,4-triazol-3-yl)propan-2-yl)phenyl)-3-oxo-7-(trifluoromethyl)isoindoline-5-carboxylic acid] were 1 to 3 µM, no more than 10 µM and 3 to 10 µM.
As for `C[C@H](Cc1nncn1C)c1cc(N2Cc3c(cccc3C(F)(F)F)C2=O)ccc1F` [Compound 280, 2-[4-fluoro-3-[(1R)-1-methyl-2-(4-methyl-1,2,4-triazol-3-yl)ethyl]phenyl]-4-(trifluoromethyl)isoindolin-1-one], the values for the half-inhibitory concentration (IC50) on Cbl-b [1] and at Cbl-b [6] were 3 to 10 µM and no more than 10 µM, respectively. This compound also had a Kd at Cbl-b (residues 36-427) of 1 to 3 µM.
Take `C[C@@H](Cc1nncn1C)c1cc(F)cc(N2Cc3c(cccc3C(F)(F)F)C2=O)c1` [Compound 281b, 2-[3-Fluoro-5-[(1S)-1-methyl-2-(4-methyl-1,2,4-triazol-3-yl)ethyl]phenyl]-4-(trifluoromethyl)isoindolin-1-one]: the concentration for half-maximal inhibition (IC50) at Cbl-b [1] was 3 to 10 µM; on Cbl-b [6] it was no more than 10 µM. The compound also gave a dissociation constant (Kd) at Cbl-b (residues 36-427) of 0.1 to 0.3 µM.
`CC(c1cccc(NC(=O)c2ccc(CO)c(C3CC3)n2)c1)C(F)(F)c1nncn1C` (stereo not drawn) [Compound 287, 6-cyclopropyl-N-(3-(1,1-difluoro-1-(4-methyl-4H-1,2,4-triazol-3-yl)propan-2-yl)phenyl)-5-(hydroxymethyl)picolinamide]: the half-maximal inhibitory concentration (IC50) on Cbl-b [1] was 0.1 to 0.3 µM; on Cbl-b [6] it was no more than 0.5 µM. The compound further came in with a dissociation constant Kd on Cbl-b (residues 36-427) of 1 to 3 µM.
As for `CC(c1cccc(N2Cc3c(cccc3C(F)(F)F)C2=O)c1)C(F)(F)c1nncn1C` (stereo not drawn) [Compound 294, 2-(3-(1,1-difluoro-1-(4-methyl-4H-1,2,4-triazol-3-yl)propan-2-yl)phenyl)-4-(trifluoromethyl)isoindolin-1-one], the IC50 was 0.301 to 1 µM at Cbl-b [1] and no more than 0.5 µM at Cbl-b [6]. Moreover, the dissociation constant Kd on Cbl-b (residues 36-427) was less than 0.1 µM.
The like results for `Cn1cnnc1C(F)(F)C(C)(O)c1cccc(N2Cc3c(cccc3C(F)(F)F)C2=O)c1` (stereo not drawn) [Compound 295, 2-(3-(1,1-difluoro-2-hydroxy-1-(4-methyl-4H-1,2,4-triazol-3-yl)propan-2-yl)phenyl)-4-(trifluoromethyl)isoindolin-1-one] were, in that order, 3 to 10 µM, no more than 10 µM and 1 to 3 µM.
As for `Cn1cnnc1C[C@@](C)(F)c1cccc(N2Cc3c(cccc3C(F)(F)F)C2=O)c1` [Compound 298a, (R)-2-(3-(2-fluoro-1-(4-methyl-4H-1,2,4-triazol-3-yl)propan-2-yl)phenyl)-4-(trifluoromethyl)isoindolin-1-one], the values for the concentration for half-maximal inhibition (IC50) on Cbl-b [1] and at Cbl-b [6] were 1 to 3 µM and no more than 10 µM, respectively. Also, the equilibrium dissociation constant (Kd) at Cbl-b (residues 36-427) lay within 3 to 10 µM.
Taken in the same sequence, the figures for `C[C@H](Cc1nncn1C)c1ccnc(NC(=O)c2ccc3ccccc3n2)c1` [Compound 303, (R)-N-(4-(1-(4-methyl-4H-1,2,4-triazol-3-yl)propan-2-yl)pyridin-2-yl)quinoline-2-carboxamide] were 0.301 to 1 µM, no more than 1 µM and 3 to 10 µM.
As to `C[C@@H](Cc1nncn1C)c1ccnc(N2Cc3c(cccc3C(F)(F)F)C2=O)c1` [Compound 304a, (S)-2-(4-(1-(4-methyl-4H-1,2,4-triazol-3-yl)propan-2-yl)pyridin-2-yl)-4-(trifluoromethyl)isoindolin-1-one], the IC50 is 3 to 10 µM on Cbl-b [1] and no more than 10 µM on Cbl-b [6]. In addition, the Kd on Cbl-b (residues 36-427) is greater than 10 µM.
Taken in the same sequence, the figures for `C[C@H](Cc1nncn1C)c1cccc(N2Cc3c(cc(CN4CC[C@H](O)C4)cc3C(F)(F)F)C2=O)c1` [Compound 394, 6-(((S)-3-hydroxypyrrolidin-1-yl)methyl)-2-(3-((R)-1-(4-methyl-4H-1,2,4-triazol-3-yl)propan-2-yl)phenyl)-4-(trifluoromethyl)isoindolin-1-one] were less than 0.1 µM, no more than 0.1 µM and less than 0.1 µM.
Taken in the same sequence, the figures for `CCCOc1cc([C@H](C)Cc2nncn2C)cc(N2Cc3c(cccc3C(F)(F)F)C2=O)n1` [Example 688, (R)-2-(4-(1-(4-methyl-4H-1,2,4-triazol-3-yl)propan-2-yl)-6-propoxy-pyridin-2-yl)-4-(trifluoromethyl)isoindolin-1-one] were 0.301 to 1 µM, no more than 1 µM and 1 to 3 µM.
